Patent US9856250B2, “Substituted tropane derivatives” (TOA EIYO LTD., priority 2014, dated 2018)
pIC50: −log10 of the molar value. Read-outs that look alike come from different tables or passages of the source.

Biological target: human T-type calcium channels (human Cav3.2) (Homo sapiens (Human), UniProt O95180)
Test: Antagonistic activity against T-type calcium channels (Cav3.2), Fura2 intracellular calcium assay in HEK293 cells
Type: cell-based
Procedure: For representative compounds of the present invention, the antagonistic activity against T-type calcium channels (Cav3.2) was examined by the Test Examples described below. For the respective tests, human embryo kidney cells (HEK293 cells) in which human T-type calcium channels (human Cav3.2) were stably expressed were used.
The HEK293 cells having human Cav3.2 stably expressed therein were cultured at 37° C. in Alpha-MEM, to which 10% (v/v) fetal bovine serum (FBS), penicillin (100 U/mL), streptomycin (100 μg/mL), and G418 ([…]) had been added. The cells were suspended in the culture liquid and were inoculated onto a 96-well plate. Subsequently, the cells were cultured for 48 hours. The culture liquid was removed, and the liquid was changed to S-MEM, to which 5% (v/v) FBS, calcium chloride (0.5 mmol/L), L-glutamine (2 mmol/L), L-alanine (8.9 ng/mL), L-asparagine (13.2 ng/mL), L-aspartic acid (1.33 ng/mL), L-glutamic acid (14.7 ng/mL), glycine (7.5 ng/mL), L-proline (11.5 ng/mL, L-serine (10.5 ng/mL), penicillin (100 U/mL), and streptomycin (100 μg/mL) had been added. The cells were cultured for another 24 hours. The culture liquid was removed again, and the cells were washed with an assay buffer (140 mmol/L sodium chloride, 5 mmol/L potassium chloride, 0.5 mmol/L magnesium chloride, 0.5 mmol/L calcium chloride, 10 mmol/L glucose, 0.4 mmol/L magnesium sulfate, 10 mmol/L HEPES, and […] sulfinpyrazone, pH 7.4) that had been kept warm at 37° C. Subsequently, an assay buffer prepared by dissolving Fura2-AM, which is a fluorescent Ca^2+ indicator, to a concentration of 5 μM, was added to the cells, and the system was incubated for 30 minutes at 37° C. The assay buffer having Fura2 dissolved therein was removed, and the cells were washed with the assay buffer. Subsequently, an assay buffer prepared by adding a test compound was added to the cells, and the system was incubated for 15 minutes. The plate was mounted on a fluorescence analyzer (FLEX STATION II, Molecular Devices, LLC), and the baseline was measured for 20 seconds. Subsequently, any change in the intracellular calcium concentration that was induced when an assay buffer prepared by adding 100 mmol/L calcium chloride was added to the cells, was measured (excited at 340 nm or 380 nm, and detected at 510 nm). The fluorescence intensity ratios obtainable at the respective wavelengths were calculated.
Meanwhile, the test compound solution was prepared by dissolving each test compound in DMSO to a concentration of 10 mmol/L, and then adjusting the concentration with the assay buffer so as to obtain the set concentration. For the control solution, DMSO was used instead of a test compound.
The inhibitory activity level (%) of a test compound was calculated by subtracting the average value of the fluorescence intensity ratio for a period of 0 to 20 seconds after initiation of measurement, from the average value of the fluorescence intensity ratio for a period of 45 to 50 seconds after initiation of measurement, taking the value obtained using the control solution as the maximum activity of Cav3.2, and comparing this value with the activity in the presence of the test compound.
Calculation of IC50 Value:
The inhibitory activity of each test compound was measured at concentrations of […], and the IC50 value was calculated using the curve fitting formula (Model 08: sigmoidal inhibition curve) of ASSAY EXPLORER (Symyx Technologies, Inc.).
Average of RFU value obtained for 25 to 30 seconds after the addition of a […] assay buffer after treatment with the control solution (for 45 to 50 seconds after the initiation of measurement). The RFU in the formula represents the Relative Fluorescence Unit.

[1] = HEK293 cells stably expressing human Cav3.2, Fura2 fluorescence ratio after calcium chloride addition, read-out: IC50

Sequence of human T-type calcium channels (human Cav3.2) (O95180 whole entry): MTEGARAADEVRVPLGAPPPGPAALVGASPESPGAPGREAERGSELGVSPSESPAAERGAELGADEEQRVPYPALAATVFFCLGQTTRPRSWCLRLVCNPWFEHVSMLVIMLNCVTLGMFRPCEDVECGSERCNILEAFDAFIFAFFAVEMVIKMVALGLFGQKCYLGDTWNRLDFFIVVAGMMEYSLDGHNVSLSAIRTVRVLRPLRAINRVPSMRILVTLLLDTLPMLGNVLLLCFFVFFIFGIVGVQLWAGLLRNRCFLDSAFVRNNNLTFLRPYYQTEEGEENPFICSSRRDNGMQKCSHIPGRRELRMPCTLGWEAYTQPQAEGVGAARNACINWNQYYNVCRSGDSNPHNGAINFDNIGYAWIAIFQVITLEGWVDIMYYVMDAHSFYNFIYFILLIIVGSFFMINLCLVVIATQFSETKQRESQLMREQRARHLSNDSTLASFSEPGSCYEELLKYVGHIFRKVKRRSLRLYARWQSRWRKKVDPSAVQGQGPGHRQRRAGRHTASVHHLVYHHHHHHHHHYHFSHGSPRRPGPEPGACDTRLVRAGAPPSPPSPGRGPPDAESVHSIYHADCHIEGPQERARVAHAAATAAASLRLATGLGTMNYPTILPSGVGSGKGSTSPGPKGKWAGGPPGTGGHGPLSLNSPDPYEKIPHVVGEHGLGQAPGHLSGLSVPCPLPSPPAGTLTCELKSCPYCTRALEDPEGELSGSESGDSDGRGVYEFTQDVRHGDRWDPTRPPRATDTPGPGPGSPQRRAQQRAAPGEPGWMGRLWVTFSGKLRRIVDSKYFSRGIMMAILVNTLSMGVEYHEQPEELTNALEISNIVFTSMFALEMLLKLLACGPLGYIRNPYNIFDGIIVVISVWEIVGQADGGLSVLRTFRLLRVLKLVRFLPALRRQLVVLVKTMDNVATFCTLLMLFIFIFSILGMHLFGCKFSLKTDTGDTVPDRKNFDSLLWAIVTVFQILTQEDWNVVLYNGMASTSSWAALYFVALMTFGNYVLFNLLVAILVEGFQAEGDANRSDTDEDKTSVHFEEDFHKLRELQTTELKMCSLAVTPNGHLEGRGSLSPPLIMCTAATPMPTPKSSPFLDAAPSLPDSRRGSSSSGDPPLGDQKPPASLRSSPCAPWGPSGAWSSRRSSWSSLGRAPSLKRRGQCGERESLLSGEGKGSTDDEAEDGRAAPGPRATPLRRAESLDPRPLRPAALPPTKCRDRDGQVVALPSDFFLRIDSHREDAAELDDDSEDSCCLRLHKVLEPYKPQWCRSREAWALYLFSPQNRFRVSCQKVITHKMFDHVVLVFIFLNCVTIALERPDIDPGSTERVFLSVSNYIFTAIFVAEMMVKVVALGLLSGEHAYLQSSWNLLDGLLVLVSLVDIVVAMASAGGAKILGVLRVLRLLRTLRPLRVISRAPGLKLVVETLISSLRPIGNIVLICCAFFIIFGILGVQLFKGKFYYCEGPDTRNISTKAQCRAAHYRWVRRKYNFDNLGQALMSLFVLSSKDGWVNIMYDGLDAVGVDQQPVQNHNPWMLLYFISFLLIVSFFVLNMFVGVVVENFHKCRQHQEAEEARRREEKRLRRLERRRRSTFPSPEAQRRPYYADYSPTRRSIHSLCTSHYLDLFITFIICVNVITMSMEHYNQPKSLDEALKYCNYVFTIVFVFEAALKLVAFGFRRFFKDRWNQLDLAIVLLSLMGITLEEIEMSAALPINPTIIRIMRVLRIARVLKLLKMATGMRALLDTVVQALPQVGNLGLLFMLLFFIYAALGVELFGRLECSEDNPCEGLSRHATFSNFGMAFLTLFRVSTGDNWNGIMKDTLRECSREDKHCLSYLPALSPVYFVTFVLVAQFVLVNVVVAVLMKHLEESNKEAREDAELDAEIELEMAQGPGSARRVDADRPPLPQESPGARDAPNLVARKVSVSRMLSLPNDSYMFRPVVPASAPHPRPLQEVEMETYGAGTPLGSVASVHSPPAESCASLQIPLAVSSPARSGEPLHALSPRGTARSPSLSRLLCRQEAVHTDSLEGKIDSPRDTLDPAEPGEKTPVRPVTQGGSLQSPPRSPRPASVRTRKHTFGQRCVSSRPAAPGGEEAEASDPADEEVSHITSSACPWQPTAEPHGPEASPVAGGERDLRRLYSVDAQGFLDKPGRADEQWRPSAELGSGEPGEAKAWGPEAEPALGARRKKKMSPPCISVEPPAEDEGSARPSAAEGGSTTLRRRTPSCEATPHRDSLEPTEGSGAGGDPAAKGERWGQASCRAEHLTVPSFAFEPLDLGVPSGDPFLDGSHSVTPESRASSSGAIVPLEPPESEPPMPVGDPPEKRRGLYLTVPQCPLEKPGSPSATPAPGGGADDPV

CC(C)(C)NC(=O)CN1[C@@H]2CC[C@H]1C[C@H](CC(=O)Nc1cccc(Cl)c1)C2 [Example 1, 2-[(exo)-8-(tert-Butylcarbamoyl)methyl-8-azabicyclo[3.2.1]octan-3-yl]-N-(3-chlorophenyl)acetamide]
pIC50 [1]: 7.17

COc1cc(F)cc(NC(=O)C[C@@H]2C[C@H]3CC[C@@H](C2)N3CC(=O)NC(C)(C)C)c1 [Example 3]
pIC50 [1]: 7.16

CC(C)(C)NC(=O)CN1[C@@H]2CC[C@H]1C[C@H](CC(=O)NC13CC4CC(CC(C4)C1)C3)C2 [Example 4, N-(Adamantan-1-yl)-2-[(exo)-8-(tert-butylcarbamoyl)methyl-8-azabicyclo[3.2.1]octan-3-yl]acetamide]
pIC50 [1]: 7.09

CC(C)(C)NC(=O)CN1[C@@H]2CC[C@H]1C[C@H](CNC(=O)c1coc3ccccc13)C2 [Example 11, N-[(exo)-8-(tert-Butylcarbamoyl)methyl-8-azabicyclo[3.2.1]octan-3-yl]methylbenzofuran-3-carboxamide]
pIC50 [1]: 8.52

CC(C)(C)NC(=O)CN1[C@@H]2CC[C@H]1C[C@H](CNC(=O)c1csc3c1CCCC3)C2 [Example 16]
pIC50 [1]: 7.33

CC(C)(C)NC(=O)CN1[C@@H]2CC[C@H]1C[C@H](CNC(=O)CC13CC4CC(CC(C4)C1)C3)C2 [Example 18]
pIC50: 7.14

Cc1oc2c(c1C(=O)NC[C@@H]1C[C@H]3CC[C@@H](C1)N3CC(=O)NC(C)(C)C)CCCC2 [Example 19]
pIC50: 7.32

Cc1cc(C(=O)NC[C@@H]2C[C@H]3CC[C@@H](C2)N3CC(=O)NC(C)(C)C)n(C)n1 [Example 23]
pIC50 [1]: 6.69

Cn1cc(C(=O)NC[C@@H]2C[C@H]3CC[C@@H](C2)N3CC(=O)NC(C)(C)C)c2ccccc21 [Example 24]
pIC50: 7.11

CC(C)(C)NC(=O)CN1[C@@H]2CC[C@H]1C[C@H](CNC(=O)C(C)(C)Oc1ccc(C3CC3(Cl)Cl)cc1)C2 (some centres unmarked) [Example 27]
pIC50 [1]: 7.03

CC(C)(C)NC(=O)CN1[C@@H]2CC[C@H]1C[C@H](CNC(=O)C(C)(C)Oc1ccccc1)C2 [Example 28]
pIC50 [1]: 7.19

CC(C)(C)NC(=O)CN1[C@@H]2CC[C@H]1C[C@H](CNC(=O)C(C)(C)Oc1cccc(Cl)c1)C2 [Example 31]
pIC50: 7.14

COc1cccc(OC(C)(C)C(=O)NC[C@@H]2C[C@H]3CC[C@@H](C2)N3CC(=O)NC(C)(C)C)c1 [Example 32]
pIC50 [1]: 7.01

CCn1cc(C(=O)NC[C@@H]2C[C@H]3CC[C@@H](C2)N3CC(=O)NC(C)(C)C)c2ccccc21 [Example 36]
pIC50: 7.31

Cc1c(C(=O)NC[C@@H]2C[C@H]3CC[C@@H](C2)N3CC(=O)NC(C)(C)C)c2ccccc2n1C [Example 37]
pIC50: 7.17

Cn1cc(C(=O)NC[C@@H]2C[C@H]3CC[C@@H](C2)N3CC(=O)NC2(C(F)(F)F)CC2)c2ccccc21 [Example 45]
pIC50: 6.99

CC(C)(C)NC(=O)CN1[C@@H]2CC[C@H]1C[C@H](CNC(=O)c1cccc(Cl)c1)C2 [Example 52]
pIC50 [1]: 7.32

COc1cc(Cl)cc(C(=O)NC[C@@H]2C[C@H]3CC[C@@H](C2)N3CC(=O)NC(C)(C)C)c1 [Example 53]
pIC50 [1]: 7.31

Cc1cc(F)cc(C(=O)NC[C@@H]2C[C@H]3CC[C@@H](C2)N3CC(=O)NC(C)(C)C)c1 [Example 55]
pIC50 [1]: 7.44

COc1cc(F)cc(C(=O)NC[C@@H]2C[C@H]3CC[C@@H](C2)N3CC(=O)NC(C)(C)C)c1 [Example 56]
pIC50: 7.47

CC(C)(C)NC(=O)CN1[C@@H]2CC[C@H]1C[C@H](CNC(=O)c1ccc3c(c1)CCCO3)C2 [Example 59]
pIC50 [1]: 7.21

CC(C)(C)NC(=O)CN1[C@@H]2CC[C@H]1C[C@H](CNC(=O)c1cccc3c1CCC3)C2 [Example 60]
pIC50 [1]: 7.11

CC(C)(C)NC(=O)CN1[C@@H]2CC[C@H]1C[C@H](CNC(=O)C13CC4CC(CC(C4)C1)C3)C2 [Example 65]
pIC50 [1]: 7.00

CC(C)(C)NC(=O)CN1[C@@H]2CC[C@H]1C[C@H](CNC(=O)C1C(C)(C)C1(C)C)C2 [Example 67]
pIC50 [1]: 7.38

Cn1nc(C(C)(C)C)cc1C(=O)NC[C@@H]1C[C@H]2CC[C@@H](C1)N2CC(=O)NC(C)(C)C [Example 69]
pIC50 [1]: 7.29

CC(C)(C)CCC(=O)NC[C@@H]1C[C@H]2CC[C@@H](C1)N2CC(=O)NC(C)(C)C [Example 71]
pIC50 [1]: 7.19

COc1cc(C)cc(C(=O)NC[C@@H]2C[C@H]3CC[C@@H](C2)N3CC(=O)NC(C)(C)C)c1 [Example 72]
pIC50 [1]: 7.26

CC(C)(C)NC(=O)CN1[C@@H]2CC[C@H]1C[C@H](CNC(=O)C1CCCCC1)C2 [Example 74]
pIC50: 7.00

CC(C)(C)NC(=O)CN1[C@@H]2CC[C@H]1C[C@H](CNC(=O)c1ccc(Cl)cc1)C2 [Example 77]
pIC50: 7.66

CC(C)(C)NC(=O)CN1[C@@H]2CC[C@H]1C[C@H](CNC(=O)c1ccc(F)cc1)C2 [Example 78]
pIC50 [1]: 7.36

CC(C)(C)NC(=O)CN1[C@@H]2CC[C@H]1C[C@H](CNC(=O)c1cc(F)cc(C#N)c1)C2 [Example 79]
pIC50: 7.35

Cc1ccc(C(=O)NC[C@@H]2C[C@H]3CC[C@@H](C2)N3CC(=O)NC(C)(C)C)s1 [Example 81]
pIC50 [1]: 7.03

CCc1oc2ccccc2c1C(=O)NC[C@@H]1C[C@H]2CC[C@@H](C1)N2CC(=O)NC(C)(C)C [Example 84]
pIC50: 8.00

Cc1oc2ccccc2c1C(=O)NC[C@@H]1C[C@H]2CC[C@@H](C1)N2CC(=O)NC(C)(C)C [Example 85]
pIC50: 7.82

COc1ccc2oc(C)c(C(=O)NC[C@@H]3C[C@H]4CC[C@@H](C3)N4CC(=O)NC(C)(C)C)c2c1 [Example 86]
pIC50: 7.04

Cc1oc2c(c1C(=O)NC[C@@H]1C[C@H]3CC[C@@H](C1)N3CC(=O)NC1(C(F)(F)F)CC1)CCCC2 [Example 95]
pIC50: 7.06

COc1cc(C)cc(C(=O)NC[C@@H]2C[C@H]3CC[C@@H](C2)N3CC(=O)NC2(C(F)(F)F)CC2)c1 [Example 96]
pIC50 [1]: 7.24

Cn1cc(C(=O)NC[C@@H]2C[C@H]3CC[C@@H](C2)N3CC(=O)NC(C)(C)C)c2cc(Cl)ccc21 [Example 100, N-[(exo)-8-(tert-Butylcarbamoyl)methyl-8-azabicyclo[3.2.1]octan-3-yl]methyl-5-chloro-1-methyl-1H-indole-3-carboxamide]
pIC50 [1]: 7.07

COCC(C)(C)NC(=O)CN1[C@@H]2CC[C@H]1C[C@H](CNC(=O)c1cc(F)cc(Cl)c1)C2 [Example 104, 3-Chloro-5-fluoro-N-{(exo)-8-[(2-methoxy-1,1-dimethylethyl)carbamoyl]methyl-8-azabicyclo[3.2.1]octan-3-yl}methylbenzamide]
pIC50 [1]: 7.89

CC(C)(C)NC(=O)CN1[C@@H]2CC[C@H]1C[C@H](CNC(=O)C13CC4CC(CC1C4)C3)C2 [Example 107]
pIC50: 7.31

O=C(CN1[C@@H]2CC[C@H]1C[C@H](CNC(=O)C13CC4CC(CC1C4)C3)C2)NC1(CO)CCCC1 [Example 109]
pIC50: 7.03

CC1(NC(=O)CN2[C@@H]3CC[C@H]2C[C@H](CNC(=O)c2cc(F)cc(Cl)c2)C3)COC1 [Example 112]
pIC50 [1]: 7.03

CC(C)(C)NC(=O)CN1[C@@H]2CC[C@H]1C[C@H](CNC(=O)c1cccc(F)c1)C2 [Example 113]
pIC50: 7.41

O=C(CN1[C@@H]2CC[C@H]1C[C@H](CNC(=O)c1cc(F)cc(Cl)c1)C2)NC1(C(F)(F)F)CC1 [Example 114]
pIC50 [1]: 7.15

CC1(NC(=O)CN2[C@@H]3CC[C@H]2C[C@H](CNC(=O)c2cc(F)cc(Cl)c2)C3)CC1 [Example 115]
pIC50 [1]: 7.20

CN(C(=O)CN1[C@@H]2CC[C@H]1C[C@H](CNC(=O)c1cc(F)cc(Cl)c1)C2)C(C)(C)C [Example 118]
pIC50 [1]: 7.11

Cc1cccc2[nH]c(C[C@@H]3C[C@H]4CC[C@@H](C3)N4CC(=O)NC(C)(C)C)nc12 [Example 120, N-tert-Butyl-2-[(exo)-3-(4-methyl-1H-benzimidazol-2-yl)methyl-8-azabicyclo[3.2.1]octan-8-yl]acetamide]
pIC50 [1]: 7.23
